Test results reported in paper PMC5832243, “The importance of negative determinants as modulators of CK2 targeting. The lesson of Akt2 S131” (PLoS ONE, 2018).

Tests used:
Format in all cases: biochemical
[1] = biological target: T1, recombinant CK2 α2β2 (Homo sapiens, UniProt P67870+P68400); assay: CK2 kinase assay, phosphorylation of synthetic peptides (33P, phosphocellulose filters); conditions: for Effect of residue replacement in the Akt2 peptide on phosphorylation by CK2 (in words): 10 min with CK2, % of cpm of Akt1 wt peptide, means of 4 experiments (Fig 2A); for Phosphorylation by CK2: summary class of level of phosphorylation by CK2 (Table 4); for Phosphorylation by CK2, time course (in words): 0-120 min incubation with CK2 (Fig 1A)
T1 construct: made in house
T1 sequence (P68400 whole entry): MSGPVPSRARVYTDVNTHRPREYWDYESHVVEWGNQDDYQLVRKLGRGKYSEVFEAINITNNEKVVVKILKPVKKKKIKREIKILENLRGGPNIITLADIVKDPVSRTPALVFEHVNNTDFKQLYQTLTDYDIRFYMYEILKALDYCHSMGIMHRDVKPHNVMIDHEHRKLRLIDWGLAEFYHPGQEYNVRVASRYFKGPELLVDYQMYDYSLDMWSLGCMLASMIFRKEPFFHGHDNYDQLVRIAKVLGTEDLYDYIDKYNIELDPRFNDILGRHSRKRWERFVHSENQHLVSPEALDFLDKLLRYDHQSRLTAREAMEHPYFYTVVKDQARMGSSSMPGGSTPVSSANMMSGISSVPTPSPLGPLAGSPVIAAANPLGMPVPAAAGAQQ
T1 sequence (P67870 whole entry partner): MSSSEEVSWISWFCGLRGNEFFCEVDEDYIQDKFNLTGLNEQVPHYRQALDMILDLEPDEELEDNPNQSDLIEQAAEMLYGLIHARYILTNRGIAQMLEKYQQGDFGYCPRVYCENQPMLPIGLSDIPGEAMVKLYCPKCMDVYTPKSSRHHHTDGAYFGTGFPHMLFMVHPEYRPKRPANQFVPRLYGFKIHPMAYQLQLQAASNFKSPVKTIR
Method: Recombinant CK2α and CK2 α2β2 were expressed, purified and kindly donated by Dr. Stefania Sarno (Padova, Italy) and Andrea Venerando (Padova, Italy).
Phosphorylation of synthetic peptides was performed with recombinant CK2 α2β2 (0.025 μg) incubated at 30°C in a final volume of 20 μl containing 50 mM Tris/HCl (pH 7.5), 100 mM NaCl, 10 mM MgCl2, the indicated concentrations of peptides, and 20 μM [γ^33P-ATP] (5000–10000 cpm/pmol). Assays were stopped by spotting onto phosphocellulose filters. Filters were washed four times in 0.5% orthophosphoric acid before counting.

[2] = test system: Recombinant human PLK3-GST; assay: PLK3 kinase assay on substrate peptides (33P, phosphocellulose filters); conditions: 1mM peptide, 1.5 μg PLK3, 10 min, 37°C, 20 μM [γ-33P]ATP; range according to the specific radioactivity; no-peptide control 2800-9000 cpm
Method: Recombinant human PLK3-GST (Polo-like kinase3 - Glutathione S-transferase), cloned in PGEX-4T1 vector, was produced in BL21 cells and purified by glutathione-Sepharose affinity chromatography, eluted by an elution buffer composed of 50mM Hepes, pH 8.0 and 20mM reduced glutathione. Purity was assessed by SDS-PAGE and Comassie blue staining.
1.5 μg of purified recombinant-PLK3 were incubated with the substrate peptides for 10 min at 37°C in 20 μl of kinase assay buffer containing 20 mM Tris-HCl pH 7.5, 10 mM MgCl2, 5mM DTT (dithiothreitol), 20 μM [γ-^33P]ATP (2000-6000 cpm/pmol). Assays were stopped by spotting onto phosphocellulose filters. Filters were washed four times in 0.5% orthophosphoric acid before scintillation counting.

[3] = test system: CK2; assay: Phospho-aminoacid determination after CK2 phosphorylation (acid hydrolysis, high-voltage paper electrophoresis); conditions: 2 mM peptide, 20 or 120 min with CK2; only faint traces of phospho-threonine (Fig 2C)
Method: For the identification of the amino acids phosphorylated by CK2 in Akt2 peptide, after phosphorylation samples were hydrolyzed by incubation for 4 h at 110°C in 6 N HCl, then subjected to high-voltage paper electrophoresis at pH 1.9 for 2.5 h, in the presence of nonradioactive phospho-amino acids, as migration reference. Radioactivity was detected by digital autoradiography (Cyclone plus storage phosphor system, PerkinElmer), while migration of standard references was detected by ninhydrin staining.

| Substance | Effect of residue replacement in the Akt2 peptide on phosphorylation by CK2 (in words) [1] | Phosphorylation by CK2 [1] | further results |
| --- | --- | --- | --- |
| R3GSPSDNSTTEEMEV [Akt2N, Akt2 peptide with S at n-1 replaced by N] | no beneficial effect | - (or not (-)) |  |
| R3GSPSDSSGTEEMEV [Akt2TG, Akt2 peptide with T at n+1 replaced by G] | comparable to that of the Akt1 peptide | + |  |
| R3GSPSDSSTTEEMEV [Akt2(wt)] |  | - (or not (-)) | cpm detected in PLK3 assay [2]: 50000-150000 cpm; Phosphorylation by CK2, time course (in words) [1]: negligible extent; drop in phosphorylation efficiency in comparison to the Akt1 peptide ([1]; from Km and Vmax of Fig 1B): ~10 fold; Phospho-aminoacid accounting for phosphorylation by CK2 [3]: entirely accounted for by phospho-serine |
| R3GSPSDNSGAEEMEV [Akt1(wt)] |  | + | Phosphorylation by CK2, time course (in words) [1]: good substrate |
| R3GSPSDSSTAEEMEV [Akt2A, Akt2 peptide with T at n+2 replaced by A] | no beneficial effect | - (or not (-)) |  |
| R3GSPSDNSTAEEMEV [Akt1GT, Akt1 peptide with G at n+1 replaced by T] |  | - (or not (-)) |  |
| R3GSPSDSSATEEMEV [Akt2TA, Akt2 peptide with T at n+1 replaced by A] |  | + |  |
| R3GSPSDSSSTEEMEV [Akt2TS, Akt2 peptide with T at n+1 replaced by S] |  | + |  |
